Measurements from ChEMBL document CHEMBL1152637, “Synthesis and evaluation of non-hydrolyzable D-mannose 6-phosphate surrogates reveal 6-deoxy-6-dicarboxymethyl-D-mannose as a new strong inhibitor of phosphomannose isomerases” (Bioorg Med Chem, 2009).
Activity calls are given as the source filed them. No cut-off for these calls is given here.

Tests used:
[1] = molecular target: T1, Mannose-6-phosphate isomerase (Saccharomyces cerevisiae, UniProt P29952); assay: Inhibition of Saccharomyces cerevisiae type I phosphomannose isomerase assessed as D-mannose 6-phosphate to D-fructose 6-phosphate isomerization at pH 7.1 by PGI/G6PDH coupled enzyme spectrophotometric assay
T1 sequence (P29952 whole entry): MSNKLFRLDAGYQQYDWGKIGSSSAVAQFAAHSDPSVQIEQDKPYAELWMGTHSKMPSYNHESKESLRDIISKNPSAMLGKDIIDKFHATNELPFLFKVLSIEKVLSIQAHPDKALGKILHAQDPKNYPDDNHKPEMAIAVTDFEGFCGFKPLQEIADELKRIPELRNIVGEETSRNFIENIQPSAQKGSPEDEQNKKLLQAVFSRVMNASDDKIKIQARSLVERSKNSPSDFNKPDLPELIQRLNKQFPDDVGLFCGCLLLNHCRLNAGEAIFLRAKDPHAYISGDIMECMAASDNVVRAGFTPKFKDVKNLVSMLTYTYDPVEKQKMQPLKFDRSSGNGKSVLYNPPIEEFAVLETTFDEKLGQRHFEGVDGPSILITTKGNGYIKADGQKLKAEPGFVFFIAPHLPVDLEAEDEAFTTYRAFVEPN

[2] = molecular target: T2, Mannose-6-phosphate isomerase (Escherichia coli (strain K12), UniProt P00946); assay: Inhibition of Escherichia coli type I phosphomannose isomerase assessed as D-mannose 6-phosphate to D-fructose 6-phosphate isomerization at pH 7.1 by PGI/G6PDH coupled enzyme spectrophotometric assay
T2 sequence (P00946 whole entry): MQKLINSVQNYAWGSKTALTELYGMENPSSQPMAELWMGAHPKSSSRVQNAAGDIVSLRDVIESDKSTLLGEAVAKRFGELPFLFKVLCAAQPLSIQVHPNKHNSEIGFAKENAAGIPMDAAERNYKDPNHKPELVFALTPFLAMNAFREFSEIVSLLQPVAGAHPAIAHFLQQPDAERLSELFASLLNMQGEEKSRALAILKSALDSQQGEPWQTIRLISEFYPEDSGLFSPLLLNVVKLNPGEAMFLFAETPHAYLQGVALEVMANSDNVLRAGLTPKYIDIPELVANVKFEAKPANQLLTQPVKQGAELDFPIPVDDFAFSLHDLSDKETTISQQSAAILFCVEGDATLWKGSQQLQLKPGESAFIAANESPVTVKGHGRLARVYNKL

[3] = molecular target: T3, Mannose-6-phosphate isomerase (Escherichia coli (strain K12)) (UniProt P00946); assay: Competitive inhibition of Escherichia coli type I phosphomannose isomerase assessed as D-mannose 6-phosphate to D-fructose 6-phosphate isomerization at pH 7.1 by PGI/G6PDH coupled enzyme spectrophotometric assay
T3 sequence (whole entry): T2 sequence (P00946 whole entry)

[4] = molecular target: T4, Mannose-6-phosphate isomerase (Saccharomyces cerevisiae) (UniProt P29952); assay: Competitive inhibition of Saccharomyces cerevisiae type I phosphomannose isomerase assessed as D-mannose 6-phosphate to D-fructose 6-phosphate isomerization at pH 7.1 by PGI/G6PDH coupled enzyme spectrophotometric assay
T4 sequence (whole entry): T1 sequence (P29952 whole entry)

| Structure (SMILES) | IC50 [1] [µM] | Ki [1] [µM] | IC50 [2] [µM] | Ki [2] [µM] | inhibition [3] | inhibition [4] |
| --- | --- | --- | --- | --- | --- | --- |
| O=C(NO)[C@@H](O)[C@H](O)[C@H](O)CCP(=O)(O)O.ONO.ONO.ONO | 2200 | – | 370 | – | – | – |
| O=C(O)[C@@H](O)[C@H](O)[C@H](O)CP(=O)(O)O | – | – | > 3000 | – | – | – |
| NNC(=O)[C@@H](O)[C@H](O)[C@H](O)CCP(=O)(O)O | – | – | > 3000 | – | – | – |

Further lines, results first:

| IC50 [1] [µM] | Ki [1] [µM] | IC50 [2] [µM] | Ki [2] [µM] | inhibition [3] | inhibition [4] | Structure (SMILES) |
| --- | --- | --- | --- | --- | --- | --- |
| 18.1 | 10.5 | 199 | 115 | Active | Active | O=C(O)C(C[C@H]1OC(O)[C@@H](O)[C@@H](O)[C@@H]1O)C(=O)O (some centres not stated) |
| 900 | – | 4600 | – | – | – | O=C(O)CC[C@H]1OC(O)[C@@H](O)[C@@H](O)[C@@H]1O (some centres not stated) |
